Reference: patent US20260216383A1, “RADIOLABELED MEDICINE” (National University Corporation Chiba University, priority 2022, published 2026)

Tested on: BBMVs (kidney brush border membrane vesicles)
Experiment: Incubation test with BBMVs (kidney brush border membrane vesicles)
Format: in vitro ADME, male Wistar rat
Conditions: 37° C., two hours
Description: Kidney brush border membrane vesicles (BBMVs) were prepared from the kidney of a male Wistar rat (200 to 250 g) in accordance with the method of Hori et al. [Biochemical Pharmacology 45: 1763-1768, 1993]. All the operations were carried out on ice. From four to five times the mass of 300 mM mannitol and a 12 mM tris hydrochloride buffer solution (pH 7.1) containing 5 mM EGTA were added to the cortex, and the mixture was homogenized with a Polytron Homogenizer PT-3100 (manufactured by Kinematica GmgH) for two minutes, and diluted with the same buffer solution, so as to obtain a 10% homogenate. […] The BBMVs thus prepared were evaluated for the incorporation of the lysosome enzyme by measuring the activity of β-galactosidase as a lysosome marker enzyme using p-nitrophenyl-β-D-galacto-pyranoside [Plant Physiology 55: 94-98, 1975]. Further, the activities of γ-glutamyl transferase and aminopeptidase were measured by using L-γ-glutamyl-p-nitroanilide and L-leucine-p-nitroanilide in accordance with the methods of Glossmann et al. [FEBS Letters 19: 340-344, 1972], Kramers et al. [European Journal of Biochemistry 99: 345-351, 1979].
The incubation test of BBMVs and a ^67Ga-labeled low-molecular model substrate was carried out in the following manner. […] The supernatant obtained was analyzed by HPLC at a flow rate of 1 mL/min. using an Imtakt Unison US-C18 150 mm×4.6 mm column. […]

## ^67Ga-NOTA-Phe-Gly-Lys(Bzo) [^67Ga-labeled NOTA-Phe-Gly-Lys(Bzo)]
  amount of radioactive metabolite released by BBMVs, compared with ^67Ga-labeled NOTA-Met-Val-Lys(Bzo): lower than the amount of ^67Ga-labeled-NOTA-Met released from ^67Ga-labeled NOTA-Met-Val-Lys(Bzo)
HPLC of supernatant
  radioactive metabolite peak observed after incubation with BBMVs: A peak of ^67Ga-labeled-NOTA-Phe-Gly was observed, not a peak of ^67Ga-labeled-NOTA-Phe
